Measurements taken from patent US12589156B2, “Benzimidazole and benzimidazolone based protac compounds for the targeted degradation of leucine rich repeat kinase 2 (LRRK2)” (Arvinas Operations, Inc., priority 2023, dated 2026).

Biological target: T1, WT LRRK2 (Homo sapiens, UniProt Q5S007)
T1 construct: endogenous in cells; host or cells: HEK293 (endogenous LRRK2 gene knock-in tagged with HiBit; stably expressing CMV-driven firefly luciferase)
Assay: LRRK2 HiBit degradation assay (Nano-Glo Dual Luciferase) in HEK293 cells with HiBit-tagged endogenous LRRK2
Type: cell-based
Settings: for Dmax: maximal degradation
Text: Biological Assays Exemplary Assay for Testing LRRK2 Degradation Driven by Exemplary Hetero-Bifunctional Compounds Designed to Target LRRK2
The assay measures the degradation of LRRK2 in cells where the C-terminus (3′) of the endogenous gene has been tagged with a HiBit sequence in HEK293 cells. The cells also express firefly lucisferase, expressed from a Cytomegalovirus promoter and introduced into the HiBit tagged cells and stably expressed. The Nano-Glo® Dual Luciferase Reporter Assay System (Promega™, Madison, WI) was utilized.
Day 1—Preparation of Compound and Assay Plates. Two sets of plates were prepared: a triplicate set for the HiBit assay in white 384-well plates and a triplicate set of plate in black 384-well plates for the Alamar Blue cell viability assay. Briefly, the growth media (DMEM+Glutamax-10% fetal bovine serum-1% Penicillin-Streptomicin) from two T128 flasks was aspirated from the flasks. Cells were washed with Dulbecco's Phosphate Buffered Saline (dPBS) and aspirated. Trypsin (3 mL per flask) was added and the flasks were incubated for 2-3 minutes.
Ten mL of OptiMEM—10% fetal bovine-1% penicillin-streptomycin (hereinafter, “OptiMEM media”) was added to the flask and the cells and transferred to a 50 ml conical tube. A cell count (25 ul of cell into Effendorf vial+25 ul of Trypan Blue Stain) was performed and the cell density adjusted to 15,000 cell/45 μl/well (3.33×10^5/mL) in OptiMEM media.
Forty-five microliters of the cell suspension (15,000 cells) was aliquoted to each well of the white 384-well plate. The plates incubated at room temperature for 10 minutes before being placed in the 37° C.+5% CO2 incubator overnight
Day 2—Compound Treatment. Exemplary compounds were prepared at a 1 mM starting concentration and 1:3 serial dilution for 11 points CRC prepared and stored in the freezer. The Master Compound Plate was thawed overnight at room temperature. DMSO (20 μL) was added into column 24 of the Master Compound Plate for negative control and 20 μL of 300 μM of Compound 4 in column 23 as positive control.
Intermediate Compound Plate with 4% DMSO in OptiMEM Media. DMSO was added to warm OptiMEM media to achieve a 4% DMSO solution (approximately 50 mL/plate). One-hundred microliters of the OptiMEM-4% DMSO was aliquoted to each well of 384-Well Deep Well Microplates.
The Master Compound Plate and the Intermediate Compound Plate were spun down.
One microliter of compound from the Master Compound Plate was transferred into the Intermediate plate (a 1:100 dilution). The diluted mixture was mixed and 5 μL transferred into the assay plate (a 1:10 dilution) for the final starting concentration of 1 μM. The Treated Assay plates were incubated for 24 hours at 37° C.+5% CO2. The Master Compound Plate was sealed and store at room temperature for a second run that was performed within a week.
One set of white assay plates was warmed to room temperature (45 minute).
The One Glo luciferase mixture was prepared. The media from white 384-well assay plates was aspirated. Twenty-five μL of the One Glo luciferase mixture was added to each well of the assay plates. The plates were incubated on the bench (room temperature) for 45 minutes, including 10 minutes of shaking at 700 rpm. The luminescence of each plate was read on a plate reader.
1:100 DLR substrate and 1:100 LgBiT Protein dilution were added to the Promega Stop and Glo buffer and mixed just before addition to assay plates. Twenty-five microliters of Stop and Glo mixture was added to each well. Assay plates incubated for at least 45 minutes, including 10 minutes of shaking at 700 rpm. The luminescence of each plate was read on a plate reader.
Analysis of LRRK2 HiBit Screening assays. As mentioned above, plates were run in triplicate and the assay repeated twice (total of 6 replicate for exemplary compounds). For each treatment, measurements were taken for firefly luciferase for cell number, cell viability (Alamar Blue), and Nanoluc for the LRRK2-HiBit quantification. […]

[1] = HEK293, Table 2, HiBit-tagged LRRK2 in HEK293 cells, 24 hours treatment
[2] = Table 2, HiBit-tagged LRRK2 in HEK293 cells, 24 hours treatment, starting concentration 1 μM
[3] = HEK293, Table 3, comparison with direct comparators
[4] = Table 3, comparison with direct comparators, HiBit-tagged LRRK2 in HEK293 cells, 24 hours treatment

T1 sequence (Q5S007 whole entry): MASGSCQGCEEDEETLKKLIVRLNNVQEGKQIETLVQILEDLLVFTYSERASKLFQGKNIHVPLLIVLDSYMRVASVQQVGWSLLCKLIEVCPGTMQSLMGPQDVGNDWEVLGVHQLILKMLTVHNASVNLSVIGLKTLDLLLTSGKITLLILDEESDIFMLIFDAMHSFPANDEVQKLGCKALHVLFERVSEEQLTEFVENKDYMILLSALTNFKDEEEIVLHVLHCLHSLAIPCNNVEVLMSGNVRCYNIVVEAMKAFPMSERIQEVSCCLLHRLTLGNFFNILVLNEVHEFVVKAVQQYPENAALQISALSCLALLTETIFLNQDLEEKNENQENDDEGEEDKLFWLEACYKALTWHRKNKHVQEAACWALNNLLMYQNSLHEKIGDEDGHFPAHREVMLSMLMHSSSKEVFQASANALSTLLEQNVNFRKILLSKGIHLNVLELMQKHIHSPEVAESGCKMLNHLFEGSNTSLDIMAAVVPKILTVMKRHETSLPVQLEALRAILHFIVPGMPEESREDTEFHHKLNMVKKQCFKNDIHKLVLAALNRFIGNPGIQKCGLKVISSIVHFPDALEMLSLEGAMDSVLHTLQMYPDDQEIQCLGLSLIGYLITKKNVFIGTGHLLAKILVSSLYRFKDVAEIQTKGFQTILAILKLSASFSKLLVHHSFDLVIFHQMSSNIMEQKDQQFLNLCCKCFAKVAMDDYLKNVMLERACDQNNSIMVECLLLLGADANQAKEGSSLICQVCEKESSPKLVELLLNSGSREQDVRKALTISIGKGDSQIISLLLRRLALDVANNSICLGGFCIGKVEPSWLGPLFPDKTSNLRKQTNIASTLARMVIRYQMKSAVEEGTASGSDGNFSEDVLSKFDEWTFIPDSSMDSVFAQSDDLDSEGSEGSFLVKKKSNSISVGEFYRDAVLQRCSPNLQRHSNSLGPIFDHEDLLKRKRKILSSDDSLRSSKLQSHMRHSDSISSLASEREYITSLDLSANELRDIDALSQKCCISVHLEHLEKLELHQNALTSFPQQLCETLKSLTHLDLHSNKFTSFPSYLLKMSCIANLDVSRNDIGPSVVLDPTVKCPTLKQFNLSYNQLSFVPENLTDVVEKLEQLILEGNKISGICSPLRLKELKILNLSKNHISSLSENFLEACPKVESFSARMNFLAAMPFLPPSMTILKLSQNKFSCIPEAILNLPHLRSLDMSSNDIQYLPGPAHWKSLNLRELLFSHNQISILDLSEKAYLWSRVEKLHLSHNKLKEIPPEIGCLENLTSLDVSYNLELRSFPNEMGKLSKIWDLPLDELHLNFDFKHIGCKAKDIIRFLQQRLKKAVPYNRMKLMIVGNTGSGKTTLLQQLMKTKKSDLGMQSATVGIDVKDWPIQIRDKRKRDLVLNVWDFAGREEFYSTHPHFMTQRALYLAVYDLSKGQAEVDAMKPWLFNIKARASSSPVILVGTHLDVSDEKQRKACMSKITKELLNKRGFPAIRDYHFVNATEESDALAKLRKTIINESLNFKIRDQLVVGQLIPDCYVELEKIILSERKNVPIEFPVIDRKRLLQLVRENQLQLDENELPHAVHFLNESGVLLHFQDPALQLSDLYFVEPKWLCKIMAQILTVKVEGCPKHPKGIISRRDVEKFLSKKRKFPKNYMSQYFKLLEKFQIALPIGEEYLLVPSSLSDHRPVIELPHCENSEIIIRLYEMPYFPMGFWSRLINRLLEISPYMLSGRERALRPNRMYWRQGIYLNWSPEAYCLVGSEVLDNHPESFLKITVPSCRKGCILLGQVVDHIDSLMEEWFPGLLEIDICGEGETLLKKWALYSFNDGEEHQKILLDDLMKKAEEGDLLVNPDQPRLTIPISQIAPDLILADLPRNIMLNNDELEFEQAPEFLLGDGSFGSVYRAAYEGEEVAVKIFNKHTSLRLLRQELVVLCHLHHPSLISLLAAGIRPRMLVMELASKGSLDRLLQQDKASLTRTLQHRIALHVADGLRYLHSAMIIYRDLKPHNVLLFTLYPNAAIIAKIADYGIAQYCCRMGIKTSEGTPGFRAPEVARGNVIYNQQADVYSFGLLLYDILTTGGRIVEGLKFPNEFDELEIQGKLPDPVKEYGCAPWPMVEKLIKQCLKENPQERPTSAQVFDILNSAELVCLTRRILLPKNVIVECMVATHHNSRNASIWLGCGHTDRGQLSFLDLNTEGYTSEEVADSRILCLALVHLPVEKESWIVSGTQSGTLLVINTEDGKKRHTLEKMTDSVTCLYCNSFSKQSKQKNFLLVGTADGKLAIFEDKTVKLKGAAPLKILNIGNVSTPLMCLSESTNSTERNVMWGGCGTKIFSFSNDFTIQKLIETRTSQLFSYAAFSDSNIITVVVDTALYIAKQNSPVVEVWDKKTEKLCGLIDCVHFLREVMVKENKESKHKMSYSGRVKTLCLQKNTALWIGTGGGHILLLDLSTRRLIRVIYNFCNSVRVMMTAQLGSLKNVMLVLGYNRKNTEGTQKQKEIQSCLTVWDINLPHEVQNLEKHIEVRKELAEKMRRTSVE

Row | Compound | Dmax [1] | DC50 [2] | Dmax [3] | DC50 [4]
1 | CC(C)Oc1cc2c(-c3cc(N4CCN(C[C@H]5CC[C@H](OC6CCN(c7ccc8c(c7)n(C(C)C)c(=O)n8C7CCC(=O)NC7=O)CC6)CC5)CC4)ncn3)n[nH]c2cn1 (single isomer, unassigned) [Compound 59, rel-3-[2-oxo-3-(propan-2-yl)-5-(4-{[(1r,4r)-4-[(4-{6-[5-(propan-2-yloxy)-1H-pyrazolo[3,4-c]pyridin-3-yl]pyrimidin-4-yl}piperazin-1-yl)methyl]cyclohexyl]oxy}piperidin-1-yl)-2,3-dihydro-1H-1,3-benzodiazol-1-yl]piperidine-2,6-dione] | 41% | 0.74 nM | – | –
2 | COc1ccc2[nH]nc(-c3cc(N4CCN(C[C@H]5CC[C@H](OC6CCN(c7ccc8c(c7)n(C)c(=O)n8C7CCC(=O)NC7=O)CC6)CC5)CC4)ncn3)c2c1 (single isomer, unassigned) [Compound 60, rel-3-[3-methyl-2-oxo-5-(4-{[(1r,4r)-4-({4-[6-(5-methoxy-1H-indazol-3-yl)pyrimidin-4-yl]piperazin-1-yl}methyl)cyclohexyl]oxy}piperidin-1-yl)-2,3-dihydro-1H-1,3-benzodiazol-1-yl]piperidine-2,6-dione] | 38% | 0.67 nM | – | –
3 | CCOc1ccc2[nH]nc(-c3cc(N4CCN(C[C@H]5CC[C@H](OC6CCN(c7ccc8c(c7)n(C)c(=O)n8C7CCC(=O)NC7=O)CC6)CC5)CC4)ncn3)c2c1 (single isomer, unassigned) [Compound 61, rel-3-[3-methyl-2-oxo-5-(4-{[(1r,4r)-4-({4-[6-(5-ethoxy-1H-indazol-3-yl)pyrimidin-4-yl]piperazin-1-yl}methyl)cyclohexyl]oxy}piperidin-1-yl)-2,3-dihydro-1H-1,3-benzodiazol-1-yl]piperidine-2,6-dione] | 48% | 0.51 nM | – | –
4 | Cn1c(=O)n(C2CCC(=O)NC2=O)c2ccc(N3CCC(O[C@H]4CC[C@H](CN5CCN(c6cc(-c7n[nH]c8ccc(C9(C#N)CCC9)cc78)ncn6)CC5)CC4)CC3)cc21 (single isomer, unassigned) [Compound 62, rel-1-{3-[6-(4-{[(1r,4r)-4-({1-[1-(2,6-dioxopiperidin-3-yl)-3-methyl-2-oxo-2,3-dihydro-1H-1,3-benzodiazol-5-yl]piperidin-4-yl}oxy)cyclohexyl]methyl}piperazin-1-yl)pyrimidin-4-yl]-1H-indazol-5-yl}cyclobutane-1-carbonitrile] | 54% | 0.3 nM | – | –
5 | Cn1c(=O)n(C2CCC(=O)NC2=O)c2ccc(N3CCC(O[C@H]4CC[C@H](CN5CCN(c6cc(-c7n[nH]c8ccc(C9(C#N)CC9)cc78)ncn6)CC5)CC4)CC3)cc21 (single isomer, unassigned) [Compound 63, rel-1-{3-[6-(4-{[(1r,4r)-4-({1-[1-(2,6-dioxopiperidin-3-yl)-3-methyl-2-oxo-2,3-dihydro-1H-1,3-benzodiazol-5-yl]piperidin-4-yl}oxy)cyclohexyl]methyl}piperazin-1-yl)pyrimidin-4-yl]-1H-indazol-5-yl}cyclopropane-1-carbonitrile] | 56% | 0.13 nM | – | –
6 | Cn1c(=O)n(C2CCC(=O)NC2=O)c2ccc(N3CCC(O[C@H]4CC[C@H](CN5CCN(c6cc(-c7n[nH]c8ccc(C9(C#N)CC%10(CC%10)C9)cc78)ncn6)CC5)CC4)CC3)cc21 (single isomer, unassigned) [Compound 64, rel-5-{3-[6-(4-{[(1r,4r)-4-({1-[1-(2,6-dioxopiperidin-3-yl)-3-methyl-2-oxo-2,3-dihydro-1H-1,3-benzodiazol-5-yl]piperidin-4-yl}oxy)cyclohexyl]methyl}piperazin-1-yl)pyrimidin-4-yl]-1H-indazol-5-yl}spiro[2.3]hexane-5-carbonitrile] | 63% | 0.16 nM | – | –
7 | Cn1c(=O)n(C2CCC(=O)NC2=O)c2ccc(N3CCC(O[C@H]4CC[C@H](CN5CCN(c6cc(-c7n[nH]c8ccc([C@@]9(C#N)CC9%10CC%10)cc78)ncn6)CC5)CC4)CC3)cc21 (single isomer, unassigned) [Compound 65, (1R**)-1-{3-[6-(4-{[(1r*,4r*)-4-({1-[1-(2,6-dioxopiperidin-3-yl)-3-methyl-2-oxo-2,3-dihydro-1H-1,3-benzodiazol-5-yl]piperidin-4-yl}oxy)cyclohexyl]methyl}piperazin-1-yl)pyrimidin-4-yl]-1H-indazol-5-yl}spiro[2.2]pentane-1-carbonitrile] | 64% | 0.13 nM | – | –
8 | Cn1c(=O)n(C2CCC(=O)NC2=O)c2ccc(N3CCC(O[C@H]4CC[C@H](CN5CCN(c6cc(-c7n[nH]c8ccc([C@]9(C#N)CC9%10CC%10)cc78)ncn6)CC5)CC4)CC3)cc21 (single isomer, unassigned) [Compound 66, (1R**)-1-{3-[6-(4-{[(1r*,4r*)-4-({1-[1-(2,6-dioxopiperidin-3-yl)-3-methyl-2-oxo-2,3-dihydro-1H-1,3-benzodiazol-5-yl]piperidin-4-yl}oxy)cyclohexyl]methyl}piperazin-1-yl)pyrimidin-4-yl]-1H-indazol-5-yl}spiro[2.2]pentane-1-carbonitrile] | 61% | 0.14 nM | – | –
9 | Cn1c(=O)n(C2CCC(=O)NC2=O)c2cc(Br)c(N3CCC(O[C@H]4CC[C@H](CN5CCN(c6cc(-c7n[nH]c8cnc(OC9(C)CC9)cc78)ncn6)CC5)CC4)CC3)cc21 (single isomer, unassigned) [Compound 67, rel-3-[6-bromo-3-methyl-2-oxo-5-(4-{[(1r,4r)-4-[(4-{6-[5-(1-methylcyclopropoxy)-1H-pyrazolo[3,4-c]pyridin-3-yl]pyrimidin-4-yl}piperazin-1-yl)methyl]cyclohexyl]oxy}piperidin-1-yl)-2,3-dihydro-1H-1,3-benzodiazol-1-yl]piperidine-2,6-dione] | 90% | 5.9 nM | – | –

Now from value to molecule:

Row | Dmax [1] | DC50 [2] | Dmax [3] | DC50 [4] | Compound
10 | – | – | 52% | 5.6 nM | COc1c(N2CCC(O[C@H]3CC[C@H](CN4CCN(c5cc(-c6n[nH]c7cnc(OC8(C)CC8)cc67)ncn5)CC4)CC3)CC2)ccc2c1CN(C1CCC(=O)NC1=O)C2=O (stereo partly drawn) [Comparative Example 1, reference compound]
11 | – | – | 62% | 3 nM | COc1c(N2CCC(O[C@H]3CC[C@H](CN4CCN(c5cc(-c6[nH]nc7ccc(OC8(C)CC8)cc67)ncn5)CC4)CC3)CC2)ccc2c1CN(C1CCC(=O)NC1=O)C2=O (stereo partly drawn) [Comparative Example 2, reference compound]
12 | – | – | 65% | 4.3 nM | CC1(Oc2cc3c(-c4cc(N5CCN(C[C@H]6CC[C@H](OC7CCN(c8ccc9c(c8F)CN(C8CCC(=O)NC8=O)C9=O)CC7)CC6)CC5)ncn4)n[nH]c3cn2)CC1 (stereo partly drawn) [Comparative Example 3, reference compound]
13 | – | – | 80% | 0.79 nM | COc1c(N2CCC(CN3CCN(CC4CCN(c5cc(-c6n[nH]c7ccc(OC8(C)CC8)cc67)ncn5)CC4)CC3)CC2)ccc2c1CN(C1CCC(=O)NC1=O)C2=O (stereo not drawn) [Comparative Example 4, reference compound]
14 | – | – | 65% | 1.6 nM | COc1c(N2CCC(CN3CCN(CC4CCN(c5cc(-c6n[nH]c7ccc(OC8(C)CC8)cc67)ncn5)CC4)C(C)(C)C3)CC2)ccc2c1CN(C1CCC(=O)NC1=O)C2=O (stereo not drawn) [Comparative Example 5, reference compound]
15 | – | – | 68% | 1.7 nM | COc1c(N2CCC(CN3CCN(CC4CCN(c5cc(-c6n[nH]c7cnc(OC8(C)CC8)cc67)ncn5)CC4)C(C)(C)C3)CC2)ccc2c1CN(C1CCC(=O)NC1=O)C2=O (stereo not drawn) [Comparative Example 6, reference compound]
